Reference: PMC7316778 (Nature Communications, 2020)
pIC50: −log10 of the molar value. Values joined by “and” are separate entries in the source; they are usually repeats but may differ in a detail not shown here. Equal entries are not always repeated. Where two headings read alike, the source gives them in different places.

Key:
Assay in all cases: SelectScreen kinase assay
[1] = target: IKBKE (IKK epsilon) (Homo sapiens, UniProt Q14164); settings: 1 h, 1 μM WEL028, 1 h preincubation
Experimental: (§1) Selectivity profiling assays were performed by the Invitrogen SelectScreen™ Services. […] The concentration of ATP was selected to be equal to the KM, unless indicated otherwise.

[2] = target: FLT4 (VEGFR3) (Homo sapiens, UniProt P35916)
Sequence of FLT4 (VEGFR3) (Homo sapiens, UniProt P35916) (P35916 25-1363, species assumed): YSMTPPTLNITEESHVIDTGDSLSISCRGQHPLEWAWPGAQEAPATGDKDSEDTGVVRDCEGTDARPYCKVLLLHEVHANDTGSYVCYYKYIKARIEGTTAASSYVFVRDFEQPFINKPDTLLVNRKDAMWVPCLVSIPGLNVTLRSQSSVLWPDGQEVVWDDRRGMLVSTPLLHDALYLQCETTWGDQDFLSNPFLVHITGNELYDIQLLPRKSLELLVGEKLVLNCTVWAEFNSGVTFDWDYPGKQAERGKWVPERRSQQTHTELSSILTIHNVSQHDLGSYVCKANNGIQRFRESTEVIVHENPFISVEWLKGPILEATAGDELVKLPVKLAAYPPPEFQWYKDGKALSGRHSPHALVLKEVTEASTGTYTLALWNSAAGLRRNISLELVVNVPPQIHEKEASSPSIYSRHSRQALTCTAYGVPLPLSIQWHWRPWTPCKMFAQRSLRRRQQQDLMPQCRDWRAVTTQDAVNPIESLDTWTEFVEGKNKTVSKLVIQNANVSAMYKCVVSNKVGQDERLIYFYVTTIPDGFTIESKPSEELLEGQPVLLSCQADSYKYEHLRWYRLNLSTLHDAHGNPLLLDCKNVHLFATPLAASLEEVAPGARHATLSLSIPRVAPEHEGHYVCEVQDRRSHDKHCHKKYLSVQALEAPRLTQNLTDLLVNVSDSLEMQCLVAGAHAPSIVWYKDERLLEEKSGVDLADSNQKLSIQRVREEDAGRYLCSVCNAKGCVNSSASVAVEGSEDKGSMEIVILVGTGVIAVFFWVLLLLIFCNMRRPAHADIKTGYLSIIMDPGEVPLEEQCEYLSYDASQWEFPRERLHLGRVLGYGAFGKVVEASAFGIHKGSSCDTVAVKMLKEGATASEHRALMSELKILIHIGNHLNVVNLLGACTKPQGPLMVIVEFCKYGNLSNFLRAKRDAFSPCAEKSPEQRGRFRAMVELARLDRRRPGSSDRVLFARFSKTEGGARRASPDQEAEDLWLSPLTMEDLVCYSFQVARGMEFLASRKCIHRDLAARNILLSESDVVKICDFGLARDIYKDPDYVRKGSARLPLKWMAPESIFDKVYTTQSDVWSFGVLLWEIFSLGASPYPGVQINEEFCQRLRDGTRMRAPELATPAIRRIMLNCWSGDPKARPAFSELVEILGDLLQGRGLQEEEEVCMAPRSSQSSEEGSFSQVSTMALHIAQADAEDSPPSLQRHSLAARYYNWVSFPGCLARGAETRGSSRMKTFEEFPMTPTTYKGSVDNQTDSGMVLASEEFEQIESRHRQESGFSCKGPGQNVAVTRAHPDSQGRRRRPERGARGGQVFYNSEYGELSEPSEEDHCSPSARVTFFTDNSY
Experimental: as §1

[3] = system: FLT4 (VEGFR3); settings: IC50 on that kinase divided by IC50 on FES^S700C
Experimental: as §1

[4] = target: T1, MAP2K6 (MKK6) (Homo sapiens, UniProt P52564)
T1 sequence (P52564 1-334): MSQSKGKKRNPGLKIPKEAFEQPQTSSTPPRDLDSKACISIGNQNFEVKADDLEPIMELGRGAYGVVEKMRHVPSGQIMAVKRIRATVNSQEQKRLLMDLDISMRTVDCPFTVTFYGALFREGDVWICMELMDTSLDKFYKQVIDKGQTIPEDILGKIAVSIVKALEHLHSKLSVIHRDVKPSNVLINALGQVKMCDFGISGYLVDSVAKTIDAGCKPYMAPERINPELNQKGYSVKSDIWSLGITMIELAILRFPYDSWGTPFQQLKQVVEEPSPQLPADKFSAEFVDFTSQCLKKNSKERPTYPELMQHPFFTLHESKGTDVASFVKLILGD
Experimental: as §1

[5] = target: PIM3 (Homo sapiens, UniProt Q86V86)
Experimental: as §1

[6] = target: EPHA5 (Homo sapiens, UniProt P54756)
Sequence of EPHA5 (P54756 25-1037): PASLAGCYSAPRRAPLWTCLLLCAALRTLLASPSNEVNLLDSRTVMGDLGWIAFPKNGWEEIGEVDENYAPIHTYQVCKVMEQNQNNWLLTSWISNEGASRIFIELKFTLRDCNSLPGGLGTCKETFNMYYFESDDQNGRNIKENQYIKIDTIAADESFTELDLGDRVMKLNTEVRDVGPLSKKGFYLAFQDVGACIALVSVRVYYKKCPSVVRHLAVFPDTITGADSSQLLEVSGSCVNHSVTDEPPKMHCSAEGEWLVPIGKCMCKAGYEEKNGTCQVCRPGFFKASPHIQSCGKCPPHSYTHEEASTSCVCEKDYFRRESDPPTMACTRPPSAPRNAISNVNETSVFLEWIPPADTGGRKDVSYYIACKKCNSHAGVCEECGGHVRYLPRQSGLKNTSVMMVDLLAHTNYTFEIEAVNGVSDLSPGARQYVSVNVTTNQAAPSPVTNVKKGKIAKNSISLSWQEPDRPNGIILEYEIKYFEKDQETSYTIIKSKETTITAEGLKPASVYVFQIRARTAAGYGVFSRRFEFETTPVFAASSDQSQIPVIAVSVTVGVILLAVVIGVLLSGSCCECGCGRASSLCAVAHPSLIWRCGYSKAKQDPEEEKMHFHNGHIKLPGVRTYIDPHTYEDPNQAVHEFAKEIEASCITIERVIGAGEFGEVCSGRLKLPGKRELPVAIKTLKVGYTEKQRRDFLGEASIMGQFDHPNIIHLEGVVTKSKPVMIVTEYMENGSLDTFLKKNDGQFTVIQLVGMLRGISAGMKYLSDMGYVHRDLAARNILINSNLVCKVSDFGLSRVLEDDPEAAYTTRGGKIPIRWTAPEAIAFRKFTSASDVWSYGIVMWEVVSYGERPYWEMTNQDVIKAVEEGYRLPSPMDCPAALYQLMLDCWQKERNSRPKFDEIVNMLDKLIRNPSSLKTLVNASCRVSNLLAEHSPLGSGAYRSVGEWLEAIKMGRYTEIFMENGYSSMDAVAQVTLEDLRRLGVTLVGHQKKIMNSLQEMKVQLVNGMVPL
Experimental: as §1

[7] = target: RPS6KA4 (MSK2) (Homo sapiens, UniProt O75676)
Sequence of RPS6KA4 (MSK2) (O75676 whole entry): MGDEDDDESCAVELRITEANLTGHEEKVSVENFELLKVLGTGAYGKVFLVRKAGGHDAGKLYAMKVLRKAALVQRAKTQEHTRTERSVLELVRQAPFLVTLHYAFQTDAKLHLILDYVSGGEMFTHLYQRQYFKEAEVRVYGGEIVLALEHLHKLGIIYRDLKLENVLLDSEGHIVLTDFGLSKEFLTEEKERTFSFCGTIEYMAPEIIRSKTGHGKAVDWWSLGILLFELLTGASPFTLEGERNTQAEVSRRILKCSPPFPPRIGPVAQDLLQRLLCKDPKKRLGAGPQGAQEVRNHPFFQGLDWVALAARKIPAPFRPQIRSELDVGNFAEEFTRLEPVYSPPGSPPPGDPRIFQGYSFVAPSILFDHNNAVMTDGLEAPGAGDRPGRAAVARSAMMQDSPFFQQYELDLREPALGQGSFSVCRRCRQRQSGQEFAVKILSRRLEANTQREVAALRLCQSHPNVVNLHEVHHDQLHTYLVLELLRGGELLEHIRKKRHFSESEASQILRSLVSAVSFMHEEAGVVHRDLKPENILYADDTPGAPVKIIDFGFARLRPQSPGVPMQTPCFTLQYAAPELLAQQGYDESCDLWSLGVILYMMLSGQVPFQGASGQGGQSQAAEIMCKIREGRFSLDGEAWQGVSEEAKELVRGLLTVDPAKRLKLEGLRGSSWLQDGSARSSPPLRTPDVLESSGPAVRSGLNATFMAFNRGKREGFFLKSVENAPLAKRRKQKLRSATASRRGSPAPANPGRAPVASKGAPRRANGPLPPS
Experimental: as §1

[8] = target: T2, MAPKAPK5 (PRAK) (Homo sapiens, UniProt Q8IW41)
T2 sequence (Q8IW41 1-473): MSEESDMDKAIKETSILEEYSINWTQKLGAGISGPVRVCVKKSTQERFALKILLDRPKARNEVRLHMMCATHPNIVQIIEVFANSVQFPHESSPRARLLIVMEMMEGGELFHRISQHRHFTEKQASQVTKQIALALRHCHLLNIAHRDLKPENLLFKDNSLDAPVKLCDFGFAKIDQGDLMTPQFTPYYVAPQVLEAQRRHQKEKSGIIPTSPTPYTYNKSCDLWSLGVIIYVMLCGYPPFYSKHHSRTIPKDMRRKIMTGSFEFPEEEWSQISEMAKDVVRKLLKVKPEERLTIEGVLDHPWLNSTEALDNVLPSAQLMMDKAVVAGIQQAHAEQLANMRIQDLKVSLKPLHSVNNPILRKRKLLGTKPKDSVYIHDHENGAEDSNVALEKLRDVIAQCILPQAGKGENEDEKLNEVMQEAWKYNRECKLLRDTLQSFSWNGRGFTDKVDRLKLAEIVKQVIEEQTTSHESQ
Experimental: as §1

[9] = target: MAP3K14 (NIK) (Homo sapiens, UniProt Q99558)
Sequence of MAP3K14 (NIK) (Q99558 whole entry): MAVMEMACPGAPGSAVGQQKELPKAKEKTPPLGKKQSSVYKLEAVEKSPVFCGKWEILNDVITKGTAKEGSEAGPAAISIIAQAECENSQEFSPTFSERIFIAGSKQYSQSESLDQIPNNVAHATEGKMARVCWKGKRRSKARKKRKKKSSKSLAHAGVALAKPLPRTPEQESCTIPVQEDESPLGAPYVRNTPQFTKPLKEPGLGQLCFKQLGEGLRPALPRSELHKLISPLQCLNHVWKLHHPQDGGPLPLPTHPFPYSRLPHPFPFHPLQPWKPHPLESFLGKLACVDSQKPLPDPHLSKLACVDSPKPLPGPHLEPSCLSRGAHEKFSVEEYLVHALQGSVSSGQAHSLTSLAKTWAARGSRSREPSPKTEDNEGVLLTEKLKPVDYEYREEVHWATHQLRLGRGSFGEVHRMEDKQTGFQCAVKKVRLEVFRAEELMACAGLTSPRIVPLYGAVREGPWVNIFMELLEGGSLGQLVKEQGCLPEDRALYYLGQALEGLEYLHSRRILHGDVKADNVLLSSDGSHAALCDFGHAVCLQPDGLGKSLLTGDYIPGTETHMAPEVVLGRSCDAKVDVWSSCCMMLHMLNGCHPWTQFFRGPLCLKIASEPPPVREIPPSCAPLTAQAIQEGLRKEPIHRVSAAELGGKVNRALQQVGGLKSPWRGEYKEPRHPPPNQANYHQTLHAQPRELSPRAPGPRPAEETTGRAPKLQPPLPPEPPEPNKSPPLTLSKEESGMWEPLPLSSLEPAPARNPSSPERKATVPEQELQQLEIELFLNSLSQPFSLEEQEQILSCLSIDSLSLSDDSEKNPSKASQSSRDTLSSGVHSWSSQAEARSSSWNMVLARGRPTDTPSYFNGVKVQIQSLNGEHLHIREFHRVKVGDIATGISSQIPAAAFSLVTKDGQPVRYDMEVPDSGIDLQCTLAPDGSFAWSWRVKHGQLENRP
Experimental: as §1

[10] = target: PTK6 (Brk) (Homo sapiens, UniProt Q13882)
Experimental: as §1

[11] = target: FGFR1 (Homo sapiens, UniProt P11362)
Sequence of FGFR1 (P11362 22-822): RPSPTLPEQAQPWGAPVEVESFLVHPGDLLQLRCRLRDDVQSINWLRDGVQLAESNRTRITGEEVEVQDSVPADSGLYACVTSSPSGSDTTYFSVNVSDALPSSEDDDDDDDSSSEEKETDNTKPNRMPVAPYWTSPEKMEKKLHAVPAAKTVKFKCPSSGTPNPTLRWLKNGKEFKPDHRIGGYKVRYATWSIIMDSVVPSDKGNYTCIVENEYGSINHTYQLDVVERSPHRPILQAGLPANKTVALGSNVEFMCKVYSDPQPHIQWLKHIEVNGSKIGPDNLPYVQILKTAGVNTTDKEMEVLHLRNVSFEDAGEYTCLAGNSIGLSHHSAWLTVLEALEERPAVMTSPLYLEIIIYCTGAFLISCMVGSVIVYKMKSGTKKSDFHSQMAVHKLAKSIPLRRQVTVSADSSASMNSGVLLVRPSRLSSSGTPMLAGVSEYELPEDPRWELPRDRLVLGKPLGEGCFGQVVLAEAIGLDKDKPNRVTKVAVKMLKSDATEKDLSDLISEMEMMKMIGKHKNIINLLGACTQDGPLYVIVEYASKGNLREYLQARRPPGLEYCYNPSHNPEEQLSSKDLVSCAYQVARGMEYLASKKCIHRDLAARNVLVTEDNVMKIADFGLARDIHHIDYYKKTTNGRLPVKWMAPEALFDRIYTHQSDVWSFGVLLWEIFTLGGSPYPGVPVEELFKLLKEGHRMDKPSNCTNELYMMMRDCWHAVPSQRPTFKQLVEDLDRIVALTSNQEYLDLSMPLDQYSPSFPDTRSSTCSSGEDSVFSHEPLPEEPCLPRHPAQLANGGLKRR
Experimental: as §1

[12] = target: TNIK (Homo sapiens, UniProt Q9UKE5)
Experimental: as §1

[13] = target: RPS6KA5 (MSK1) (Homo sapiens, UniProt O75582)
Experimental: as §1

[14] = target: FLT1 (VEGFR1) (Homo sapiens, UniProt P17948)
Experimental: as §1

[15] = 1 h, 1 μM WEL028, 1 h preincubation
[16] = 1 h, log[inhibitor] (M) -5.00, ZLYTE, ATP Km app
[17] = 1 h, log[inhibitor] (M) -5.48, ZLYTE, ATP Km app
[18] = 1 h, log[inhibitor] (M) -5.95, ZLYTE, ATP Km app
[19] = 1 h, log[inhibitor] (M) -6.43, ZLYTE, ATP Km app
[20] = 1 h, log[inhibitor] (M) -7.39, ZLYTE, ATP Km app
[21] = IC50 on that kinase divided by IC50 on FES^S700C
[22] = 1 µM, ZLYTE, ATP Km app, listed as WEL028, 1 µM

With C#CCOc1ccc(Nc2ncc(Cl)c(Nc3ccccc3NC(=O)C=C)n2)c(OC)c1 [Compound 6] the inhibition at 1 µM [1] was 2%, the pIC50 [2] was 6.70 and the inhibition at 1 µM [2, 15] was 120%. For the same compound, the inhibition at 10 µM [2, 16] was 103%, the inhibition at 3.31 µM [2, 17] was 100% and the inhibition at 1.12 µM [2, 18] was 95%. It also gave an inhibition at 0.372 µM [2, 19] of 70%, an inhibition at 0.123 µM ([2]; 1 h, log[inhibitor] (M) -6.91, ZLYTE, ATP Km app) of 38% and an inhibition at 0.04074 µM [2, 20] of 9%. It also gave an inhibition at 0.0138 µM ([2]; 1 h, log[inhibitor] (M) -7.86, ZLYTE, ATP Km app) of 4%, an inhibition at 0.00151 µM ([2]; 1 h, log[inhibitor] (M) -8.82, ZLYTE, ATP Km app) of 2% and an inhibition at 1 µM ([2]; read-out: Inhibition at 1 µM (%), FLT4 (VEGFR3), 1 µM, ZLYTE, ATP Km app) of 121%. For the same compound, the Apparent fold selectivity [3] was 50 fold, the pIC50 [4] was 6.50 and the inhibition at 1 µM [4, 15] was 73%. The inhibition at 10 µM ([4]; 1 h, log[inhibitor] (M) -5.00, ZLYTE, ATP 100) was 92%, the inhibition at 3.311 µM ([4]; 1 h, log[inhibitor] (M) -5.48, ZLYTE, ATP 100) was 96% and the inhibition at 1.122 µM ([4]; 1 h, log[inhibitor] (M) -5.95, ZLYTE, ATP 100) was 80%. The inhibition at 0.3715 µM ([4]; 1 h, log[inhibitor] (M) -6.43, ZLYTE, ATP 100) was 51%, the inhibition at 0.123 µM ([4]; 1 h, log[inhibitor] (M) -6.91, ZLYTE, ATP 100) was 29% and the inhibition at 0.0138 µM ([4]; 1 h, log[inhibitor] (M) -7.86, ZLYTE, ATP 100) was 11%. The inhibition at 0.001514 µM ([4]; 1 h, log[inhibitor] (M) -8.82, ZLYTE, ATP 100) was 4%, the Apparent fold selectivity [4, 21] was 68 fold and the inhibition at 1 µM ([4]; read-out: Inhibition at 1 µM (%), MAP2K6 (MKK6), 1 µM, ZLYTE, ATP 100) was 73%. The inhibition at 1 µM [5, 15] was 0%, the “Inhibition at 1 µM (%)” value ([5]; PIM3, 1 µM, ZLYTE, ATP Km app, listed as WEL028, 1 µM) was -1% and 1% and the “Inhibition (%)” value ([6]; 1 μM WEL028, 1 h preincubation) was 0%. For the same compound, the “Inhibition at 1 µM (%)” value ([6]; EPHA5, 1 µM, ZLYTE, ATP Km app, listed as WEL028, 1 µM) was 3% and -2%, the “Inhibition at 1 µM (%)” value [7, 22] was -4% and 6% and the inhibition at 1 µM [7, 15] was 1%. It also gave a pIC50 [8] of 6.30, an inhibition at 1 µM [8, 15] of 66% and an inhibition at 10 µM [8, 16] of 95%. For the same compound, the inhibition at 3.31 µM [8, 17] was 94%, the inhibition at 1.12 µM [8, 18] was 76% and the inhibition at 0.372 µM [8, 19] was 36%. The inhibition at 0.04074 µM [8, 20] was 13%, the inhibition at 0.004571 µM ([8]; 1 h, log[inhibitor] (M) -[…], ZLYTE, ATP Km app) was 4% and the Apparent fold selectivity [8, 21] was 112 fold. For the same compound, the “Inhibition at 1 µM (%)” value ([8]; MAPKAPK5 (PRAK), 1 µM, ZLYTE, ATP Km app, listed as WEL028, 1 µM) was 70%, the inhibition at 1 µM ([8]; read-out: Inhibition at 1 µM (%), MAPKAPK5 (PRAK), 1 µM, ZLYTE, ATP Km app) was 62% and the inhibition at 1 µM [9, 15] was 3%. For the same compound, the “Inhibition at 1 µM (%)” value ([9]; MAP3K14 (NIK), 1 µM, LanthaScreen Binding, listed as WEL028, 1 µM) was 7% and -1%, the “Inhibition at 1 µM (%)” value [10, 22] was 29% and the inhibition at 1 µM [10, 15] was 31%. For the same compound, the inhibition at 1 µM ([10]; read-out: Inhibition at 1 µM (%), 1 µM, ZLYTE, ATP Km app) was 33%, the inhibition at 1 µM [11, 15] was 3% and the “Inhibition at 1 µM (%)” value ([11]; FGFR1, 1 µM, ZLYTE, ATP Km app, listed as WEL028, 1 µM) was 5% and 1%. For the same compound, the “Inhibition at 1 µM (%)” value ([12]; 1 µM, LanthaScreen Binding, listed as WEL028, 1 µM) was 4%, the inhibition at 1 µM [12, 15] was 5% and the inhibition at 1 µM ([12]; read-out: Inhibition at 1 µM (%), 1 µM, LanthaScreen Binding) was 6%. For the same compound, the “Inhibition at 1 µM (%)” value ([13]; 1 µM, ZLYTE, ATP Km app) was -13%, the inhibition at 1 µM [13, 15] was -7% and the inhibition at 1 µM [14, 15] was 36%. The “Inhibition at 1 µM (%)” value ([14]; FLT1 (VEGFR1), 1 µM, ZLYTE, ATP Km app, listed as WEL028, 1 µM) was 31% and the inhibition at 1 µM ([14]; read-out: Inhibition at 1 µM (%), FLT1 (VEGFR1), 1 µM, ZLYTE, ATP Km app) was 42%.
